Experimental data: the supplement of paper PMC10307832

Columns and labels:
Test in all cases: relative viability (nuclei count vs DMSO), 5 days (fraction); higher = more cells survive
RAF265 + AZD7762 = compound: Cn1c(Nc2ccc(C(F)(F)F)cc2)nc2cc(Oc3ccnc(-c4ncc(C(F)(F)F)[nH]4)c3)ccc21 [RAF265] + NC(=O)Nc1cc(-c2cccc(F)c2)sc1C(=O)N[C@H]1CCCNC1 [AZD7762] (partner 0.2 µM)
Summary of the method: (§1)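 Lung cancer cell lines in 1536-well plates were dosed by pin tool the day after seeding, either with one drug alone or with a fixed anchor-drug dose plus five library-drug doses (not always all listed) in √10 steps. After 5 days, cells were fixed and their nuclei stained in one step (final 0.05% Triton X-100, 1% formaldehyde, 1 ug/ml Hoechst), then counted on 4× images. Relative viability is the nuclei count in treated wells divided by that in vehicle wells. Values are medians of duplicate plates.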

[1] = compound: Cc1ccc(-n2nc(C(C)(C)C)cc2NC(=O)Nc2ccc(OCCN3CCOCC3)c3ccccc23)cc1 [Doramapimod] + CC(=O)c1c(C)c2cnc(Nc3ccc(N4CCNCC4)cn3)nc2n(C2CCCC2)c1=O [Palbociclib] (partner 0.5 µM)
Summary of the method: as §1

IPA-3 + Dasatinib = compound: C1=CC=C2C(=C1)C=CC(=C2SSC3=C(C=CC4=CC=CC=C43)O)O [IPA-3] + Cc1nc(Nc2ncc(C(=O)Nc3c(C)cccc3Cl)s2)cc(N2CCN(CCO)CC2)n1 [Dasatinib] (partner 0.075 µM)
Summary of the method: as §1

Doramapimod + Navitoclax = compound: Cc1ccc(-n2nc(C(C)(C)C)cc2NC(=O)Nc2ccc(OCCN3CCOCC3)c3ccccc23)cc1 [Doramapimod] + CC1(C)CCC(c2ccc(Cl)cc2)=C(CN2CCN(c3ccc(C(=O)NS(=O)(=O)c4ccc(N[C@H](CCN5CCOCC5)CSc5ccccc5)c(S(=O)(=O)C(F)(F)F)c4)cc3)CC2)C1 [Navitoclax] (partner 0.5 µM)
Summary of the method: as §1

Cell Line | relative viability (RAF265 + AZD7762; first compound 0.01 µM) | relative viability (RAF265 + AZD7762; first compound 0.03162 µM) | relative viability (RAF265 + AZD7762; first compound 0.1 µM) | relative viability (RAF265 + AZD7762; first compound 0.3162 µM) | relative viability (RAF265 + AZD7762; first compound 1 µM) | relative viability ([1]; first compound 0.02 µM) | relative viability ([1]; first compound 0.06325 µM) | relative viability ([1]; first compound 0.2 µM) | relative viability ([1]; first compound 0.6325 µM) | relative viability ([1]; first compound 2 µM) | relative viability (IPA-3 + Dasatinib; first compound 0.2 µM) | relative viability (IPA-3 + Dasatinib; first compound 0.6325 µM) | relative viability (IPA-3 + Dasatinib; first compound 2 µM) | relative viability (IPA-3 + Dasatinib; first compound 6.325 µM) | relative viability (IPA-3 + Dasatinib; first compound 20 µM) | relative viability (Doramapimod + Navitoclax; first compound 0.02 µM) | relative viability (Doramapimod + Navitoclax; first compound 0.06325 µM) | relative viability (Doramapimod + Navitoclax; first compound 0.2 µM) | relative viability (Doramapimod + Navitoclax; first compound 0.6325 µM) | relative viability (Doramapimod + Navitoclax; first compound 2 µM)
HCC-366 | 0.25 | 0.253 | 0.396 | 0.321 | 0.157 | 0.397 | 0.379 | 0.373 | 0.412 | 0.351 | 0.892 | 0.613 | 0.604 | 0.656 | 0.679 | 1.05 | 1 | 1.03 | 0.978 | 0.901
HCC-827 | 0.213 | 0.357 | 0.215 | – | 0.197 | 0.456 | 0.479 | 0.493 | 0.475 | 0.329 | 0.419 | 0.358 | 0.405 | 0.302 | 0.292 | 1.01 | 0.959 | 0.984 | 1 | 0.829
IA-LM | – | – | – | – | – | – | – | – | – | – | – | – | – | – | – | 0.676 | 0.567 | 0.804 | 0.807 | 0.577
LCLC-103H | 0.815 | 0.911 | 0.767 | 0.727 | 0.598 | 0.43 | 0.396 | 0.432 | 0.42 | 0.439 | 0.492 | 0.482 | 0.422 | 0.56 | 0.566 | – | – | – | – | –
NCI-H358 | 0.46 | 0.515 | 0.491 | 0.279 | 0.184 | 0.153 | 0.137 | 0.138 | 0.195 | 0.133 | 0.219 | 0.145 | 0.186 | 0.213 | 0.158 | – | – | – | – | –
NCI-H520 | – | – | – | – | – | 0.214 | 0.222 | 0.21 | 0.213 | 0.214 | 0.311 | 0.194 | 0.185 | 0.18 | 0.179 | 1 | 1.11 | 1.08 | 1.18 | 1.02
NCI-H522 | 0.801 | 0.872 | 0.887 | 0.985 | 0.897 | 1.02 | 1.04 | 1.03 | 0.954 | 0.817 | 0.875 | 0.922 | 0.847 | 0.86 | 0.884 | – | – | – | – | –
NCI-H596 | 1.29 | 1.08 | 1.03 | 0.877 | 0.548 | – | – | – | – | – | 0.635 | 0.573 | 0.765 | 0.69 | 0.752 | 0.927 | 0.809 | 0.933 | 1.01 | 0.876
NCI-H650 | 0.969 | 0.966 | 0.996 | 0.551 | 0.748 | 0.368 | 0.341 | 0.395 | 0.343 | 0.345 | 0.461 | 0.498 | 0.439 | 0.438 | 0.44 | – | – | – | – | –
NCI-H661 | – | – | – | – | – | 0.447 | 0.407 | 0.404 | 0.427 | 0.39 | 1.06 | 0.871 | 0.656 | 0.867 | 0.787 | – | – | – | – | –
NCI-H1299 | – | – | – | – | – | – | – | – | – | – | – | – | – | – | – | 1.1 | 1.13 | 1.12 | 1.05 | 1.09
NCI-H1563 | – | – | – | – | – | – | – | – | – | – | 0.418 | 0.506 | 0.447 | 0.537 | 0.442 | – | – | – | – | –
NCI-H1623 | – | – | – | – | – | – | – | – | – | – | 0.509 | 0.579 | 0.561 | 0.546 | 0.617 | – | – | – | – | –
